The experiment is described as follows: Antagonist activity at H4R in human eosinophils assessed as inhibition of histamine-induced shape change by GAFS assay.

The term pIC50 denotes the IC50 on a negative log10 scale, so that one unit is a factor of ten.

pIC50: −log10 of the molar value.

Take `CN[C@@H]1CCN(c2cc(NCC3CC3)nc(N)n2)C1`: the pIC50 is 9.19.

The values are drawn from BindingDB's records for doi:10.1016/j.bmcl.2011.07.125 (Pfizer, 2011).
